Data from ChEMBL document CHEMBL4715712 (Bioorg Med Chem Lett, 2016).
pIC50: −log10 of the molar value.

Key:
[1] = Ulcerogenic activity in rat assessed as average severity of ulcers at 50 mg/kg, po administered once daily for 3 consecutive days and measured after 1 hr post last dose (reference value: 0); format: toxicity, organism-based; conditions: in vivo
Rattus norvegicus = experiment: Antiinflammatory activity against po dosed Wistar albino rat model of carrageenan-induced foot paw edema after 3 hrs; format: functional
[2] = Inhibition of soya bean 15-LOX by enzyme immunoassay; set-up: species or system Glycine max
[3] = Ulcerogenic activity in rat assessed as ulcer index at 50 mg/kg, po administered once daily for 3 consecutive days and measured after 1 hr post last dose; format: toxicity, organism-based; conditions: in vivo, 72 h, time 3 day
[4] = molecular target: T1, Prostaglandin G/H synthase 1 (Ovis aries, UniProt P05979); experiment: Inhibition of Ovine COX-1 assessed as decrease in prostaglandin production using arachidonic acid as substrate pretreated for 15 mins followed by substrate addition and measured after 2 mins by enzyme immunoassay
T1 sequence (P05979 whole entry): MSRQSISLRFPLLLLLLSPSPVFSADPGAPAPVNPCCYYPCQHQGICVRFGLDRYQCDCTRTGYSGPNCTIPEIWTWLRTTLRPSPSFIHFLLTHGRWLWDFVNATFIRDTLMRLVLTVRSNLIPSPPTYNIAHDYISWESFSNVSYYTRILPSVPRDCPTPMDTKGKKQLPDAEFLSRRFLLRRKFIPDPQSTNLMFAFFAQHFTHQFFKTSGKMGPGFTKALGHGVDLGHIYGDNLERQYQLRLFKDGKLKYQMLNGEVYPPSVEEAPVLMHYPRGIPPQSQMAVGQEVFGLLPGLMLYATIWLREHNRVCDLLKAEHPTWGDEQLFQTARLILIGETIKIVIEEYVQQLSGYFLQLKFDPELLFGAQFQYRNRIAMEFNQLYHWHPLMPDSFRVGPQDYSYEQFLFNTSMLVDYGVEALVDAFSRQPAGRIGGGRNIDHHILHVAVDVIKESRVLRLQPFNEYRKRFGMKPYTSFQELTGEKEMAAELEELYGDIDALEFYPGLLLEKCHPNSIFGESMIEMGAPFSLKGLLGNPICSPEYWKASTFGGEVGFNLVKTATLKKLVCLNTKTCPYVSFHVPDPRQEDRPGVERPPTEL

[5] = Ulcerogenic activity in rat assessed as average number of ulcers at 50 mg/kg, po administered once daily for 3 consecutive days and measured after 1 hr post last dose (reference value: 0); format: toxicity, organism-based; conditions: in vivo
[6] = Ulcerogenic activity in rat assessed as incidence of ulcer at 50 mg/kg, po administered once daily for 3 consecutive days and measured after 1 hr post last dose (reference value: 0%); format: toxicity, organism-based; conditions: in vivo

| pIC50 [2] | pIC50 [4] | SMILES | Activity [1] | ED50 (Rattus norvegicus) | UI [3] | Activity [5] | Activity [6] |
| --- | --- | --- | --- | --- | --- | --- | --- |
| 5.05 | 4.99 | COc1cccc([C@@H]2CC(c3sc(-c4ccccc4)nc3C)=NN2c2ccc(S(N)(=O)=O)cc2)c1OC | 0.73 | 47 µmol/kg | 2.93 | 0.2 | 20% |
| 5.22 | 5.19 | COC(=O)c1cc(-c2sc(-c3ccccc3)nc2C)nn1-c1ccc(S(N)(=O)=O)cc1 | 0.17 | 74 µmol/kg | 2.67 | 0.5 | 20% |
| 5.55 | 5.41 | COc1ccc(/C=C/C(=O)c2sc(-c3ccccc3)nc2C)cc1OC | 0.57 | 80 µmol/kg | 3.87 | 0.3 | 30% |
| 5.24 | 5.17 | COc1cc(/C=C/C(=O)c2sc(-c3ccccc3)nc2C)cc(OC)c1OC | 0.52 | 45 µmol/kg | 3.92 | 0.4 | 30% |
|  |  | Cc1ccc(-c2cc(C(F)(F)F)nn2-c2ccc(S(N)(=O)=O)cc2)cc1 [CELECOXIB] | 0.5 | 47 µmol/kg | 2.9 | 0.4 | 20% |
|  |  | COC(=O)/C(O)=C/C(=O)c1sc(-c2ccccc2)nc1C | 0.39 |  | 3.79 | 0.4 | 30% |
| 5.25 | 5.19 | COc1cccc([C@@H]2CC(c3sc(-c4ccccc4)nc3C)=NN2c2ccc(S(C)(=O)=O)cc2)c1OC | 0.25 | 70 µmol/kg | 2.65 | 0.4 | 20% |
| 5.23 | 5.17 | COC(=O)c1cc(-c2sc(-c3ccccc3)nc2C)nn1-c1ccc(S(C)(=O)=O)cc1 | 0.28 | 90 µmol/kg | 2.48 | 0.2 | 20% |
| 5.13 | 5.08 | COc1ccc([C@@H]2CC(c3sc(-c4ccccc4)nc3C)=NN2c2ccc(S(C)(=O)=O)cc2)cc1OC | 0.85 | 52 µmol/kg | 4.35 | 0.5 | 30% |
|  |  | CC(=O)Oc1ccccc1C(=O)O [ASPIRIN] |  | 714 µmol/kg |  |  |  |
| 5.19 | 5.12 | COc1cc([C@@H]2CC(c3sc(-c4ccccc4)nc3C)=NN2c2ccc(S(C)(=O)=O)cc2)cc(OC)c1OC | 0.18 | 87 µmol/kg | 2.78 | 0.6 | 20% |
| 5.13 | 5.07 | COc1ccc([C@@H]2CC(c3sc(-c4ccccc4)nc3C)=NN2c2ccc(S(N)(=O)=O)cc2)cc1OC | 0.68 | 55 µmol/kg | 4.08 | 0.4 | 30% |
| 5.33 | 5.24 | COc1cc([C@@H]2CC(c3sc(-c4ccccc4)nc3C)=NN2c2ccc(S(N)(=O)=O)cc2)cc(OC)c1OC | 0.53 | 45 µmol/kg | 3.83 | 0.3 | 30% |
| 5.21 | 5.14 | COc1cccc(/C=C/C(=O)c2sc(-c3ccccc3)nc2C)c1OC | 1.03 | 59 µmol/kg | 6.63 | 0.6 | 50% |
| 5.25 |  | Cc1ccc(Cl)c(Nc2ccccc2C(=O)O)c1Cl [MECLOFENAMATE SODIUM] |  |  |  |  |  |
